Measured values reported in US20110086758A1, “Fungicidal compositions comprising 3'-bromo-2,3,4,6'-tetramethoxy-2',6-dimethylbenzophenone” (BASF SE, priority 2008, published 2011).

System: Sphaerotheca fuliginea
Test: Field testing on melons, natural infection with Sphaerotheca fuliginea
Format: in vivo
Conditions: efficacy in % of untreated control, 3 applications
Description: The visually determined percentages of infected leaf areas were converted into efficacies in % of the untreated control: The efficacy (E) is calculated as follows using Abbot's formula: W=(1−α/β)·100 • α corresponds to the fungicidal infection of the treated plants in % and • β corresponds to the fungicidal infection of the untreated (control) plants in % At an efficacy of 0, the infection level of the treated plants corresponds to that of the untreated control plants; at an efficacy of 100, the treated plants are not infected. The expected efficacies of active compound mixtures were determined using Colby's formula (S. R. Colby, “Calculating synergistic and antagonistic responses of herbicide combinations”, Weeds 15, pp. 20-22 (1967) and compared with the observed efficacies. E=x+y−x·y/100 • expected efficacy, expressed in % of the untreated control, when using the mixture of the active compounds A and B at the concentrations a and b • x efficacy, expressed in % of the untreated control, when using the active compound A at the concentration a • y efficacy, expressed in % of the untreated control, when using the active compound B at the concentration b The trial was carried out under standardized field conditions. Melons were grown in the field. After 36 days, an application with the recited products was carried out, which was repeated two times after 7 days and after 14 days. No further active components for pathogen control were applied. The infection with the pathogen Sphaerotheca fuliginea ensued naturally. Infestation in % of leaf area affected was scored 35 days after the first application. The visually determined values of % of leaf area infected was initially averaged and then converted into efficacies as % of the untreated control. An efficacy of 0 is the same infestation as the untreated control, an efficacy of 100% is 0% infestation. The expected efficacies of active compound combinations were determined as described above using Colby's formula and compared with the observed efficacies. The active compounds were used as commercially available compositions. […]

Row | SMILES | Observed effect 35 days after first treatment (dose 50 g ai/ha, scored 35 days after first application) | Observed effect 35 days after first treatment (dose 100 g ai/ha, leaf area infested scored 35 days after first application) | Observed effect 35 days after first treatment (dose 30 g ai/ha, scored 35 days after first application)
1 | COc1cc(C)c(C(=O)c2c(OC)ccc(Br)c2C)c(OC)c1OC [Metrafenone, 3′-bromo-2,3,4,6′-tetramethoxy-2′,6-dimethylbenzophenone] | 46% | 70% | 
2 | CC1COC(Cn2cncn2)(c2ccc(Oc3ccc(Cl)cc3)cc2Cl)O1 (stereo not drawn) [Difenoconazole, 1-{2-[2-chloro-4-(4-chlorophenoxy)phenyl]-4-methyl-[1,3]dioxolan-2-ylmethyl}-1H-[1,2,4]triazole] |  |  | 19%
